# Counter-ions that a name gives are not always drawn.
# Columns and labels:
# [1] = tested on: restless leg syndrome; settings: in vivo; cited from earlier work
# [2] = tested on: restless legs syndrome and periodic leg movements in sleep; settings: cited from earlier work; for patients who responded: consecutive series of patients
# [3] = tested on: restless legs syndrome; assay: 12-week open label pilot trial of cabergoline in RLS patients: polysomnography; type: in vivo
# Description: In a 12-week open label pilot trial, the effects of a single evening cabergoline-dose on symptoms of RLS were investigated in 9 patients and the results presented here. See also, Stiasny K., Oertel W.H., Schüler P. (1998). Cabergoline in RLS, ENS, Nice, Abstract.
# Efficacy was assessed by polysomnography and subjective ratings. All patients previously had experienced partial benefit of a levodopa therapy (either standard or standard and slow release) and in part developed augmentation under levodopa therapy. At study entry all patients were comedicated with domperidone (20 mg TID) and five were still under levodopa therapy (400-800 mg). At the endpoint all patients were on cabergoline monotherapy (mean dose 2.1 mg, range 1 to 4 mg). Domperidone was stopped in all patients due to excellent tolerability. […] Total sleep time was prolonged, sleep latency shortened and sleep efficiency increased. All patients reported significant relief or became free of RLS symptoms.
# (§1) Following a 2-week baseline period, all patients were treated with cabergoline in an open trial for 12 weeks. Apart from levodopa, patients had to stop taking any medication known to have positive or negative effect on RLS two weeks before baseline (i.e., other dopamine agonists, benzodiazepines, opioids or other psychotropic agents). Patients who were on levodopa therapy were allowed to either stop levodopa prior to study entry or to continue, taper or discontinue levodopa during the study. To prevent well known peripheral dopaminergic side-effects such as nausea, vomiting, vertigo and arterial hypotension domperidone (not available in the United States) was comedicated initially and also tapered if possible. […] Neurological case history, examination, electrocardiogramm, chest x-ray and polysomnography were performed to ensure that selection criteria were fulfilled. A two-night PSG (including one night of adaptation) was performed to evaluate the diagnosis and inclusion/exclusion criteria regardless if patients were on or off levodopa. After a 12-week treatment period patients were studied again for one night in the sleep laboratory. Subjective ratings were obtained at baseline, week 4, week 8 and at the endpoint after 12 weeks. In addition patients were monitored by phone calls to note any adverse events and to determine whether to increase the dosage of the study drug, to decrease levodopa and to decrease domperidone. The time schedule of phone calls was variable and the frequency mostly dependent on the presence of simultaneous levodopa therapy.
# Inclusion criteria. Patients were included if they fulfilled the minimal diagnostic criteria according to the International RLS Study Group. After rating clinical symptoms at baseline, patients were referred to polysomnography without any RLS specific treatment other than levodopa. Patients were included if they had more than five PLM per hour of time-in-bed (PLM index) and a sleep efficiency index (total sleep time per hour time-in-bed) of less than 85%.
# Exclusion criteria. Patients with signs of any other sleep disorder on PSG, especially sleep apnea syndrome (respiratory disturbances index > 5 per hour total sleep time), were excluded. Subjects receiving neuroleptic, antidepressant or other psychotropic medications or with any severe additional illness (with special consideration to pulmonary fibrosis) or drug abuse were also excluded. […]
# [4] = tested on: restless legs syndrome; assay: 12-week open label pilot trial: patients' subjective ratings and sleep diaries; type: in vivo
# Description: as §1
# Dosing. Study medication was available in tablets containing 0.5 mg, 1 mg or 2 mg Cabergoline (Cabaseril®, Pharmacia & Upjohn, Erlangen, Germany). Medication was taken 2 hours prior to bedtime. Initial therapy consisted of one 0.5 mg tablet. […] The increased dose could be decreased again if necessary. All patients were initially comedicated with domperidone 20 mg t.i.d. which could be tapered and stopped if possible. Subjects who were pretreated with levodopa were asked to decrease levodopa simultaneously if possible.
# Subjective ratings. After each night of recording and at each visit at week 2 and 4, patients rated the severity of illness (normal to extremely ill), the therapeutic effects by rating their global improvements by use of the Patients Global Impressions (general condition very much worse to very much better), the severity of RLS symptoms during the time of falling asleep, during the night and during the day (scale: 0 = not present to 10 = very strong) and sleep satisfaction (very unsatisfied to very satisfied). In addition patients rated their quality of life, concerning well being and complaints during the previous week, using modified 50-mm Hamburger Visual Analogue Scale. Patients also filled in a sleep diary at each study visit rating the following symptoms: global assessment of sleep (very bad to very good night), sleep latency, sleep time, frequency of awakenings and urge to move the legs at time falling asleep, during the night and during the day (scale: 0 = not present to 10 = very strong).
# [5] = tested on: restless legs syndrome; assay: 12-week open label pilot trial: physician's rating (Clinical Global Impressions); type: in vivo; settings: under cabergoline, 9 patients
# Description: as §1, with “Subjective ratings were obtained at baseline, week 4, week 8 and at the endpoint after 12 weeks.” left out, “The time schedule of phone calls was variable and the frequency mostly dependent on the presence of simultaneous levodopa therapy.” left out
# [6] = tested on: restless legs syndrome; assay: 12-week open label pilot trial: safety and augmentation; type: in vivo, patients
# Description: as §1
# Safety. Safety of Cabergoline was assessed to the type and frequency of adverse event, clinically significant changes in laboratory data or ECG and premature discontinuation of study participation. Adverse events were classified as serious versus nonserious and characterized by intensity, relationship to drug treatment, frequency, course and therapeutic intervention.
# [7] = Half-life and duration of action; type: in vivo; settings: as stated by the applicant, no method given
# [8] = tested on: RLS; settings: treatment of RLS; quote from www.rls.org, March 1999; cited from earlier work
# [9] = tested on: RLS; settings: cited from earlier work
smiles,measurement,setting,value
CC(C)C[C@H]1C(=O)N2CCC[C@H]2[C@]2(O)O[C@](NC(=O)[C@@H]3C=C4c5cccc6[nH]c(Br)c(c56)C[C@H]4N(C)C3)(C(C)C)C(=O)N12 [Bromocriptine],patients reporting better subjective improvement in restlessness and paresthesia compared to placebo,[1],5 of 6
same,side effects reported,[1],transient nasal stuffiness and lightheadedness in one patient
CCCN1C[C@H](CSC)C[C@@H]2c3cccc4[nH]cc(c34)C[C@H]21 [Pergolide],patients who responded,[2],19 of 26
same,patients who suffered from augmentation,[2]; patients treated with pergolide,15%
same,patients who had augmentation,[2]; pergolide patients,4 of 26
"C=CCN1C[C@H](C(=O)N(CCCN(C)C)C(=O)NCC)C[C@@H]2c3cccc4[nH]cc(c34)C[C@H]21 [cabergoline, 1((6-allylergolin-8β-yl) -carbony.)-1-(3-(dimethylamino)propyl)-3-ethylurea]",PLM arousal,"[3]; Week 12, baseline 51.7 ± 42.3",6.4 ± 11.2
same,PLM arousal index,"[3]; number of PLM arousals per hour total sleep time, Week 12, baseline 10.4 ± 7.8",1.0 ± 1.7
same,PLM awakening,"[3]; number of PLM awakenings, Week 12, baseline 9.6 ± 4.9",1.0 ± 2.0
same,PLM index,"[3]; number of PLM per hour time in bed, Week 12, baseline 27.7 ± 17.1",3.6 ± 5.3
same,No. Of PLM,"[3]; total number of PLM during time in bed, Week 12, cabergoline monotherapy, baseline 195.8 ± 109.1",26.4 ± 40.2
same,relief of RLS symptoms reported by patients,"[4]; 12 weeks, 9 patients",All patients reported a significant relief or became free of RLS symptoms
same,severity of illness in PGI (number of patients),"[4]; cabergoline monotherapy, 9 patients, baseline extremely (2), very (4) or markedly (3) ill","normal (5) or borderline (2) in PGI, only two as moderately ill"
same,quality of life (Hamburger Visual Analogue Scales),[4]; compared with baseline,much better than under baseline conditions
same,sleep satisfaction (number of patients),"[4]; endpoint, 9 patients, baseline very (1), markedly (6) or moderately (2) unsatisfied","2 were very, 4 markedly, 1 moderately satisfied and only 2 moderately unsatisfied"
same,had to get up,"[4]; sleep diaries, cabergoline monotherapy, baseline 2.1",0.6 times per night
same,General condition in PGI (number of patients),"[4]; under cabergoline, 9 patients",very much better (6) or much better (3)
same,global quality of the previous night (sleep diaries),"[4]; zero (very bad) to 10 (very good) scale, endpoint, baseline 3.1",6.9
same,"Physician's rating of general condition (global improvement, number of patients)",[5],"very much better in 5, much better in 3 and minimally better in 1 patients"
same,augmentation under cabergoline,[6]; 12-week treatment period,we did not observe augmentation in our patients
same,laboratory data and ECG,[6]; 12 weeks,No significant changes
same,"adverse events probably related to the study drug, total","[6]; 12 weeks, 9 patients",8
same,serious side effects and withdrawals,"[6]; 12 weeks, 9 patients",no serious side effects and no patient withdrew from the study
same,patients reporting adverse events probably related to the study drug,[6]; of 9 patients,5 patients
same,reversibility of augmentation evoked by levodopa,[6]; patients who had developed augmentation under levodopa,reversible under cabergoline in all of our patients
same,half life,[7],> 65 h
same,half-life,"[7]; human, in vivo",65 h
"CCCN1C[C@H](CSC)C[C@@H]2c3cccc4[nH]cc(c34)C[C@H]21 [Permax®, pergolide mesylate]",people who develop augmentation,[8],10%
N[C@@H](Cc1ccc(O)c(O)c1)C(=O)O [L-dopa],RLS patients with augmentation who required a medication change,"[9]; Allen, Earley, Sleep 1996",50%
same,augmentation in PLMS patients,"[9]; Allen, Earley, Sleep 1996",31%
same,augmentation in RLS patients,"[9]; Allen, Earley, Sleep 1996",82%
same,RLS patients with augmentation reporting 3 major symptoms of increased severity,[9]; of the 22 RLS patients with augmentation,100%
same,patients who responded,[2],21 of 51

# Reference: EP1477168A1, “Use of cabergoline in the treatment of restless leg syndrome” (priority 1998, dated 1999)
